target: MAPK14 (UniProt Q16539); test: Inhibition of MAPK14 Kinase Activity
Sequence (Q16539 whole entry, looked up): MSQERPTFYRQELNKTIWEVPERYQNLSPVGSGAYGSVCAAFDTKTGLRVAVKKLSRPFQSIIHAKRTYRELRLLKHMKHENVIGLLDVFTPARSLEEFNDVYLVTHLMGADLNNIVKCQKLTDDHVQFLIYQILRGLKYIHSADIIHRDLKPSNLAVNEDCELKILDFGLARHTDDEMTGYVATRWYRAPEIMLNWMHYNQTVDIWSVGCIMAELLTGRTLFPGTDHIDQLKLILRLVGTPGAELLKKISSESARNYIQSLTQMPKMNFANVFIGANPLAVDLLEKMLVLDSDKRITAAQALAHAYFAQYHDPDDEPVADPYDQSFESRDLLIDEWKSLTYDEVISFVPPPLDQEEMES

| Structure (SMILES) | IC50 |
| --- | --- |
| CN(C)CC(=O)Nc1ccc2c(-c3c(-c4ccccn4)nn4c3CCC4)ccnc2c1 | < 20 µM |
| CSc1ccc2nccc(-c3c(-c4ccccn4)nn4c3CCC4)c2c1 | < 20 µM |
| CN1CCN(CCCOc2ccc3c(-c4c(-c5ccccn5)nn5c4CCC5)ccnc3c2)CC1 | < 20 µM |
| COc1ccc2c(-c3c(-c4ccccn4)nn4c3CCC4)ccnc2c1 | < 20 µM |
| Cc1cccc(-c2nn3c(c2-c2ccc(F)cc2)CC[C@@H]3CC#N)n1 | < 20 µM |
| CNC(=O)c1ccc2c(-c3c(-c4ccccn4)nn4c3CCC4)ccnc2c1 | < 20 µM |
| O=C(NCCc1c[nH]cn1)c1ccc2c(-c3c(-c4ccccn4)nn4c3CCC4)ccnc2c1 | < 20 µM |
| OCCCSc1ccc2c(-c3c(-c4ccccn4)nn4c3CCC4)ccnc2c1 | < 20 µM |
| Fc1ccc(-c2nn3c(c2-c2ccnc4ccccc24)CCC3)cc1 | < 20 µM |
| Cc1cccc(-c2nn3c(c2-c2ccnc4ccc(C(=O)O)cc24)CCC3)n1 | < 20 µM |
| c1ccc(-c2nn3c(c2-c2ccnc4cc(OCCCn5ccnc5)ccc24)CCC3)nc1 | < 20 µM |
| Cc1cccc(-c2nn3c(c2-c2ccnc4ccc(-c5ccc(F)cc5)cc24)CCC3)n1 | < 20 µM |
| COC(=O)c1ccc2c(-c3c(-c4ccccn4)nn4c3CCC4)ccnc2c1 | < 20 µM |
| Cc1cccc(-c2nn3c(c2-c2ccnc4cc(N)ccc24)CCC3)n1 | < 20 µM |
| c1ccc(-c2nn3c(c2-c2ccc4ccccc4c2)CCC3)nc1 | < 20 µM |
| Cc1cccc(-c2nn3c(c2-c2ccc4c(c2)OCO4)CCC3)n1 | < 20 µM |

Reference: the Kinase Knowledgebase extract (Sharma et al. 2016)
